Assay [1] concerns lipid peroxides in the blood serum. As to the kind of experiment: Antilipid Peroxidation Activity (B), lipid peroxides in blood serum of alloxan-injected mice. Conditions: ip, 24 hours after alloxan 85 mg/kg. The assay is classed as in vivo, Male ddY mice. The procedure:
(B) Male ddY mice having a body weight of 24 to 27 g were used (i.e., 5 to 9 mice in one group). After 16 to 17 hours nestia, 85 mg/kg of alloxan was rapidly injected into the tail vein of the mice. After injecting the alloxan, the mice were subjected to free feeding and free water intaking and, 24 hours later, the sample compound was intraperitoneally injected into the mice. After an additional 24 hours, anesthesia was applied to the mice with ether and the blood of alvine aorta and cava was sampled. The amounts of the lipid peroxides in the blood serum were quantitatively measured according to a Yagi's method (i.e., K. Yagi, Biochem. Med., 15, 212, 1976).
The results were compared with that of a control group to which only a physiological saline was injected.

In assay [2] the test system is Male ddY mice. The assay can be described thus: Global Ischemia Activity (gasping time after decapitation). To be noted: for extension of the gasping time: at a dose of 50 mg/kg or less, injected. The assay is classed as in vivo. As for the experimental part:
Male ddY mice having a body weight of 22 to 30 g were used (i.e., 6 mice in one group). The sample compound prepared in the Synthesis Example 1 or 7 was intraperitoneally injected into the mice and the mice were decapitated 30 minutes after the injection. After decapitation, the gasping times were determined. The results were compared with a control group to which only the saline was injected.

Assay [3] has as its system Male ddY mice. The assay can be described thus: Hypobaric Hypoxia Activity (survival time at 180 mmHg). The assay is classed as in vivo. As for the experimental part:
Male ddY mice having a body weight of 22 to 30 g were used (i.e., 7 to 10 mice in one group). The mice were […] sample compound prepared in the Synthesis Example 1 or 7 was intraperitoneally injected into the mice. The desiccator was evacuated 30 minutes after the injection and the time from the start of the evacuation to the termination of breathing by the mice was determined to be the survival time. If a mouse was still alive 15 minutes after exposure to the hypoxia, the survival time was assumed to be 15 minutes.

A further assay deals with rat brain homogenate. As to the kind of experiment: Antilipid Peroxidation Activity (A), rat brain homogenate, TBA reaction. To be noted: at 10^-4 M, 37° C., 30 minutes. In kind it is biochemical, Male Wister rats. As for the experimental part:
(A) Male Wister rats having a body weight of 350 to 380 g were used. A rat was decapitated and the whole brain other than the cerebellum was homogenized in 10 times volume of ice cooled 50 mM buffered saline (PBS) having a pH of 7.4. The homogenized mixture was then centrifugally separated and the resultant supernatant frozen at a temperature of -30° C. The frozen specimen was melted in flowing water and was then diluted with 3 times volume PBS to prepare the diluted homogenate.
A 10 μl of a solution of the sample compound prepared in the Synthesis Example 1 or 7 was added to 1 ml of the diluted homogenate obtained above and the mixture was incubated at a temperature of 37° C. for 30 minutes. […]
As is the case of the test compound solution, 10 μl of the standard solution of tetramethoxypropane (TMP) was prepared and was added to the reaction mixture in amounts of 0 to 10 nmole/tube. […] Thereafter, the resultant layers were stabilized for 10 minutes at 2,000 rpm and the absorbance of the organic layer at 532 nm or the fluorescence intensity of the organic layer at 553 nm (excited at 515 nm) were determined. The lipid peroxide content was determined and represented a nmole number of malon dialdehyde (MDA) per mg of protein. The protein was determined by a Lawry method (i.e., Lawry et al., J. Biol. Chem., 193, 265 (1951)).

The test system of the next assay is Male mice. As to the kind of experiment: Hemicholinium No. 3 (HC-3) Induced Anoxia Activity (survival time). The assay is classed as in vivo. Conditions: Mus musculus; ip, 15 minutes before 5 mg/kg hemicholinium No. 3 into tail vein; read-out: HC-3 Induced Anoxia EDmin (Minimum effective dose). The procedure: Male mice having a body weight of 22 to 30 g were used (i.e., 7 to 10 mice in one group). The sample compound prepared in the Synthesis Example 1 or 7 was intraperitoneally injected into the mice and, 15 minutes later, 5 mg/kg of hemicholinium No. 3 was injected into the tail vein of the mice. The time from the injection of hemicholinium No. 3 to the termination of breathing by the mice was determined to be the survival time. The results were compared with that of a control group to which only a physiological saline was injected.

The test system of assay [4] is Male ddY mice. The assay can be described thus: Normobaric Hypoxia Activity (survival time in 96% N2 and 4% O2). The assay is classed as in vivo. To be noted: ip, 30 minutes before. The procedure:
Male ddY mice having a body weight of 22 to 30 g were used (i.e., 7 to 10 mice in one group). The sample compound prepared in the Synthesis Example 1 or 7 was intraperitoneally injected into the mice and, 30 minutes later, the mice were placed in a desiccator having a volume of about 1 liter and filled with a gas mixture of 96% N2 and 4% O2. The survival time up to the termination of breathing by the mice was determined. During the test, the N2 --O2 gas mixture was continuously supplied at a rate of 3 l/min. When the survival time was more than 15 minutes, the survival time was assumed to be 15 minutes. The results were compared with a control group, to which only a physiological saline was injected.

For assay [5], the system named is Male ddY mice. The assay can be described thus: Scopolamine Amnesia Activity (step-through passive avoidance learning). In kind it is in vivo. Conditions: Mus musculus; ip immediately after first session; scopolamine 0.5 mg/kg hypodermically; retention test 24 hours later; read-out: Scopolamine Amnesia EDmin (Minimum effective dose). From the text: Ten male ddY mice having a body weight of 22 to 30 g were used as one group. A slit was located between a light room and a dark room. In the dark room, an arrangement was made whereby an electric shock was given to the feet by an electric current. Thus, the behavior of the mice in relation to step-through to the dark room was studied. The mice were amnesically treated with an administration of scopolamine with or without the injection of the sample compound 1 or 7 and the time taken to avoid step-through by the mice to the dark room was determined by the so-called step-through passive avoidance learning method. The electric current used was 0.6 mA. The scopolamine was hypodermically injected in an amount of 0.5 mg/kg at 20 minutes prior to the first session and the sample compound was intraperitoneally injected immediately after the first session. The retention test (i.e., the second session) was carried out 24 hours later.

Where a name gives a salt, the structure may show the parent alone.

For the molecule `COc1ccc(O)c(C(CCC(=O)N2CCN(C(=O)CCC(c3ccccc3)c3cc(OC)ccc3O)CC2)c2ccccc2)c1` (stereo not drawn) [Example 29, N,N'-bis[(4-(2-hydroxy-5-methoxy)phenyl-4-phenyl)-1-oxobutyl]piperazine], the “inhibition of the formation of the lipid peroxides” value (“inhibition … of the lipid peroxides” below) in assay [1] (at a dose of 10 mg/kg) is listed as “caused inhibition”.
Regarding `COc1ccc(O)c(C(CCC(=O)N2CCCNCC2)c2ccccc2)c1` (stereo not drawn) [Example 30, 4-(2-hydroxy-5-methoxy)phenyl-4-phenyl-1-homopiperazinyl-1-oxobutane], in the assay on Male ddY mice [2], the “extension of the gasping time” value is reported as “significant difference in the extension of the gasping time”.
With `COc1ccc(O)c(C(CCC(=O)NN2CCOCC2)c2ccccc2)c1` (stereo not drawn) [Example 12], the “inhibition … of the lipid peroxides” value in assay [1] (at a dose of 50 mg/kg) is reported as “significant difference in the inhibition of the formation of the lipid peroxides”.
Consider `COc1ccc(O)c(C(CCC(=O)NCCN2CCN(C(=O)CCC(c3ccccc3)c3cc(OC)ccc3O)CC2)c2ccccc2)c1` (stereo not drawn) [Example 33, 4-(2-hydroxy-5-methoxy)phenyl-1-[4-(2-(4-(2-hydroxy-5-methoxy)phenyl-4-phenyl-1-oxo)aminoethyl)piperadinyl]-1-oxobutane], for which, in assay [1] (at a dose of 50 mg/kg), the “inhibition … of the lipid peroxides” value is listed as “significant difference in the inhibition of the formation of the lipid peroxides”. For the same molecule, in the assay on Male ddY mice [3] (at a dose of 50 mg/kg or less, injected), the “extension of the survival time (hypobaric hypoxia)” value is on record as “significant difference in the extension of the survival time”. Further, in the assay on Male ddY mice [2], the “extension of the gasping time” value is on record as “significant difference in the extension of the gasping time”.
Consider `COc1ccc(O)c(C(CCC(=O)NCCN2CCCCC2)c2ccccc2)c1` (stereo not drawn) [Example 19, 4-(2-hydroxy-5-methoxy)phenyl-4-phenyl-1-(2-piperidinyl)ethylamino-1-oxobutane hydrochloride], for which, in the assay on Male ddY mice [3] (dose not clearly stated), the “survival time (hypobaric hypoxia) compared with the control group” value is reported as “reduced the survival time”. In addition, the “extension of the gasping time” value in the assay with Male ddY mice [2] is recorded as “significant difference in the extension of the gasping time”.
Turning to `COc1ccc(O)c(C(CCC(=O)N2CCN(c3ccccc3)CC2)c2ccccc2)c1` (stereo not drawn) [Example 4], the “inhibition … of the lipid peroxides” value in assay [1] (at a dose of 10 mg/kg) was “caused inhibition”.
In the case of `COc1ccc(O)c(C(CCC(=O)N2CCCN(C(=O)CCC(c3ccccc3)c3cc(OC)ccc3O)CC2)c2ccccc2)c1` (stereo not drawn) [Example 31, N,N'-bis-[(4-(2-hydroxy-5-methoxy)phenyl-4-phenyl)-1-oxobutyl]homopiperazine], the “inhibition … of the lipid peroxides” value in assay [1] (at a dose of 50 mg/kg) is given as “significant difference in the inhibition of the formation of the lipid peroxides”.
On the same count and under the same terms, the same measure for `COc1ccc(O)c(C(CCC(=O)N2CCCN(C)CC2)c2ccccc2)c1` (stereo not drawn) [Example 18]: “significant difference in the inhibition of the formation of the lipid peroxides”; for `COc1ccc(O)c(C(CCC(=O)N2CCNCC2)c2ccccc2)c1` (stereo not drawn) [Example 28, 4-(2-hydroxy-5-methoxy)phenyl-4-phenyl-1-piperazinyl-1-oxobutane]: “significant difference in the inhibition of the formation of the lipid peroxides”.
`COc1ccc(O)c(C(CCC(=O)NCCN2CCNCC2)c2ccccc2)c1` (stereo not drawn) [Example 32]: the “extension of the gasping time” value in the assay on Male ddY mice [2] is recorded as “significant difference in the extension of the gasping time”.
For the molecule `COc1ccc(O)c(C(CCC(=O)N2CCCCC2)c2ccccc2)c1` (stereo not drawn) [Example 3], in assay [1] (at a dose of 50 mg/kg), the “inhibition … of the lipid peroxides” value is recorded as “significant difference in the inhibition of the formation of the lipid peroxides”.
On the same count and under the same terms, as for `COc1ccc(O)c(C(CCC(=O)N2CCCC2)c2ccccc2)c1` (stereo not drawn) [Example 13], the entry is “significant difference in the inhibition of the formation of the lipid peroxides”.
Regarding `COc1ccc(O)c(C(CCC(=O)OCCN(C)C)c2ccccc2)c1` (stereo not drawn) [Example 36, 4-(2-hydroxy-5-methoxy)phenyl-4-phenyl-1-(2-dimethylamino)ethyloxy-1-oxybutane], in assay [1] (at a dose of 10 mg/kg), the “inhibition … of the lipid peroxides” value is on record as “caused inhibition”.
On to `COc1ccc(O)c(C(CCC(=O)N2CCN(CCO)CC2)c2ccccc2)c1` (stereo not drawn) [Example 7], for which the “Antilipid Peroxidation, % inhibition of the rat brain homogenate” value with rat brain homogenate is listed as 88.0%. Besides, the minimal effective dose in the assay on Male ddY mice [3] (Mus musculus, ip, 30 minutes before evacuation to 180 mmHg, vs physiological saline, read-out: Hypobaric Hypoxia EDmin (Minimum effective dose)) came to 50 mg/kg; in the assay on Male ddY mice [2] (Mus musculus, ip, 30 minutes before decapitation, vs saline control, read-out: Global Ischemia EDmin (Minimum effective dose)), 50 mg/kg; in the assay on Male mice, 25 mg/kg; in the assay with Male ddY mice [5], 25 mg/kg. Further, the “Normobaric Hypoxia EDmin (Minimum effective dose)” value in the assay on Male ddY mice [4] is given as “Inactive at 50 mg/kg, ip”.
Consider `COc1ccc(O)c(C(CCC(=O)NCc2ccccn2)c2ccccc2)c1` (stereo not drawn) [Example 9], for which the “inhibition … of the lipid peroxides” value in assay [1] (at a dose of 10 mg/kg) is given as “caused inhibition”.
Regarding `CCOC(=O)c1ccc(Oc2cccc(OC)c2)c(NC(=O)CCC(c2ccccc2)c2cc(OC)ccc2O)c1` (stereo not drawn) [Example 15], in the assay with Male ddY mice [2], the “extension of the gasping time” value was “significant difference in the extension of the gasping time”.
Take `COc1ccc(O)c(C(CCC(=O)N2CCSCC2)c2ccccc2)c1` (stereo not drawn) [Example 8]: the “inhibition … of the lipid peroxides” value in assay [1] (at a dose of 5 mg/kg) is reported as “caused inhibition”.
Take `COc1ccc(O)c(C(CCC(=O)N(C)Cc2ccccc2)c2ccccc2)c1` (stereo not drawn) [Example 6]: in assay [1] (at a dose of 10 mg/kg), the “inhibition … of the lipid peroxides” value is “caused inhibition”. Moreover, in the assay on Male ddY mice [2], the “extension of the gasping time” value was “significant difference in the extension of the gasping time”.
